What was measured:
Details in all cases: 48 h
NOMO1 [1] = test: AUC of viability dose-response curve (% viability x log10 dose units); higher = less sensitive
How it was run: (§1)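 Seeding of medium-adapted leukemia cells was at 500 or 1000 cells/well in 1536-well plates, followed by 48 h at 37°C with library compounds in DMSO at 11 threefold doses from 47 μM to 0.79 nM. CellTiter-Glo One luminescence was normalised per plate to DMSO and cell-free wells and fitted as a four-parameter log-logistic function of log10 dose. Area under the curve was integrated by trapezoidal rule, with curves exceeding full viability scaled and curves failing quality control removed.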

SEM cells [2] = test: as above
How it was run: as §1

P12-Ichikawa = test: as above
How it was run: as §1

SEM cells [3] = test: cell viability relative to DMSO control; higher = less cytotoxic
How it was run: (§2)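 Viability, reported as a per-plate percentage of DMSO wells with cell-free wells as background, came from CellTiter-Glo One luminescence. Reading took place after 48 h at 37°C. Before that, NOMO1 or SEM (500 cells/well) or P12-Ichikawa (1000 cells/well) leukemia cells, adapted for at least four passages in each medium, were seeded in 1536-well plates (5 μl) and pin-dosed with library compounds in DMSO, 47 μM to 0.79 nM over 11 threefold points.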

NOMO1 [4] = test: as above
How it was run: as §2

CN1C2CCC1CC(OC(=O)C(CO)c1ccccc1)C2 (stereo not given)
AUC of viability dose-response curve
Details	NOMO1 [1]	P12-Ichikawa	SEM cells [2]
HPLM + 10% dialyzed FBS	467	454	464
RPMI 5 mM glucose + 10% FBS	463	465	439
RPMI 5 mM glucose + 10% dialyzed FBS	472	469	474

CCCCCCCCCCCCc1ccc([S+](=O)([O-])Nc2nncs2)cc1
AUC of viability dose-response curve
Details	NOMO1 [1]	P12-Ichikawa	SEM cells [2]
HPLM + 10% dialyzed FBS	390	411	447
RPMI 5 mM glucose + 10% FBS	443	460	360
RPMI 5 mM glucose + 10% dialyzed FBS	452	451	415

CC[C@H]1OC(=O)[C@H](C)[C@@H](O[C@H]2C[C@@](C)(OC)[C@@H](O)[C@H](C)O2)[C@H](C)[C@@H](O[C@@H]2O[C@H](C)C[C@H](N(C)C)[C@H]2O)[C@](C)(O)C[C@@H](C)CN(C)[C@H](C)[C@@H](O)[C@]1(C)O
SEM cells [3], HPLM + 10% dialyzed FBS
Details	cell viability [%]
0.000781 µM	85.1
0.00234 µM	122
0.00702 µM	124
0.0211 µM	129
0.0632 µM	133
0.19 µM	127
0.569 µM	149
1.71 µM	119
5.12 µM	129
15.4 µM	133
46.1 µM	96.6

AUC of viability dose-response curve
Details	NOMO1 [1]	P12-Ichikawa	SEM cells [2]
HPLM + 10% dialyzed FBS	458	458	458
RPMI 5 mM glucose + 10% FBS	419	452	458
RPMI 5 mM glucose + 10% dialyzed FBS	446	459	467

CCCCC[C@H](O)/C=C/[C@H]1[C@H](O)CC(=O)[C@@H]1CCCCCCC(=O)O
AUC of viability dose-response curve
Details	NOMO1 [1]	P12-Ichikawa	SEM cells [2]
HPLM + 10% dialyzed FBS	412	464	402
RPMI 5 mM glucose + 10% FBS	455	445	399
RPMI 5 mM glucose + 10% dialyzed FBS	417	453	409

CSCC[C@H](NC(=O)[C@H](Cc1c[nH]c2ccccc12)NC(=O)CCNC(=O)OC(C)(C)C)C(=O)N[C@@H](CC(=O)O)C(=O)N[C@@H](Cc1ccccc1)C(N)=O
AUC of viability dose-response curve
Details	NOMO1 [1]	P12-Ichikawa	SEM cells [2]
HPLM + 10% dialyzed FBS	440	470	460
RPMI 5 mM glucose + 10% FBS	453	464	461
RPMI 5 mM glucose + 10% dialyzed FBS	456	470	459

COc1ccc(-c2oc3cc(OC)ccc3c2C(=O)c2ccc(C#N)cc2)cc1
cell viability [%], SEM cells [3]
Details	HPLM + 10% dialyzed FBS	RPMI 5 mM glucose + 10% FBS	RPMI 5 mM glucose + 10% dialyzed FBS
0.000781 µM	114	93.2	113
0.00234 µM	117	109	123
0.00702 µM	120	133	144
0.0211 µM	121	127	124
0.0632 µM	128	130	150
0.19 µM	136	140	175
0.569 µM	129	139	162
1.71 µM	141	148	174
5.12 µM	131	136	147
15.4 µM	142	123	136
46.1 µM	125	124	136

AUC of viability dose-response curve
Details	NOMO1 [1]	P12-Ichikawa	SEM cells [2]
HPLM + 10% dialyzed FBS	326	354	455
RPMI 5 mM glucose + 10% FBS	311	345	460
RPMI 5 mM glucose + 10% dialyzed FBS	321	374	451

COc1c(O)cc2c(c1O)[C@@H]1O[C@H](CO)[C@@H](O)[C@H](O)[C@H]1OC2=O
AUC of viability dose-response curve
Details	NOMO1 [1]	P12-Ichikawa	SEM cells [2]
HPLM + 10% dialyzed FBS	419	432	431
RPMI 5 mM glucose + 10% FBS	448	432	394
RPMI 5 mM glucose + 10% dialyzed FBS	454	427	409

COC1=CC=C2[N](CCCN(C)C)C=C(C2=C1)C/3=C(/C(=O)NC3=O)C4=C[NH]C5=C4C=CC=C5
SEM cells [3], HPLM + 10% dialyzed FBS
Details	cell viability [%]
0.000781 µM	107
0.00234 µM	123
0.00702 µM	123
0.0211 µM	123
0.0632 µM	122
0.19 µM	57.2
0.569 µM	132
1.71 µM	111
5.12 µM	88.4
15.4 µM	67.4
46.1 µM	8.06

AUC of viability dose-response curve
Details	NOMO1 [1]	P12-Ichikawa	SEM cells [2]
HPLM + 10% dialyzed FBS	471	456	425
RPMI 5 mM glucose + 10% FBS	471	453	365
RPMI 5 mM glucose + 10% dialyzed FBS	472	452	387

Cc1cccc2c1CC[C@H](CN1CCC(c3c(Cl)cccc3Cl)CC1)C[C@@H]2O
cell viability [%]
Details	HPLM + 10% dialyzed FBS	RPMI 5 mM glucose + 10% FBS	RPMI 5 mM glucose + 10% dialyzed FBS
NOMO1 [4], 0.000781 µM	99.8	–	103
NOMO1 [4], 0.00234 µM	115	–	124
NOMO1 [4], 0.00702 µM	116	–	130
NOMO1 [4], 0.0211 µM	126	–	148
NOMO1 [4], 0.0632 µM	133	–	129
NOMO1 [4], 0.19 µM	154	–	145
NOMO1 [4], 0.569 µM	150	–	143
NOMO1 [4], 1.71 µM	136	–	103
NOMO1 [4], 5.12 µM	116	–	82
NOMO1 [4], 15.4 µM	97.9	–	70.2
NOMO1 [4], 46.1 µM	83.9	–	61.5
SEM cells [3], 0.000781 µM	71	112	88.5
SEM cells [3], 0.00234 µM	98.2	138	109
SEM cells [3], 0.00702 µM	113	120	118
SEM cells [3], 0.0211 µM	111	127	126
SEM cells [3], 0.0632 µM	128	130	120
SEM cells [3], 0.19 µM	114	111	95.8
SEM cells [3], 0.569 µM	116	142	104
SEM cells [3], 1.71 µM	122	133	112
SEM cells [3], 5.12 µM	101	108	91.9
SEM cells [3], 15.4 µM	96.6	72.5	70.6
SEM cells [3], 46.1 µM	79.9	58	58.3

AUC of viability dose-response curve
Details	NOMO1 [1]	P12-Ichikawa	SEM cells [2]
HPLM + 10% dialyzed FBS	453	472	474
RPMI 5 mM glucose + 10% FBS	424	425	437
RPMI 5 mM glucose + 10% dialyzed FBS	413	439	441

OCCN1C[C@H](O)[C@@H](O)[C@H](O)[C@H]1CO
SEM cells [3], HPLM + 10% dialyzed FBS
Details	cell viability [%]
0.000781 µM	93.6
0.00234 µM	116
0.00702 µM	129
0.0211 µM	118
0.0632 µM	86.6
0.19 µM	114
0.569 µM	138
1.71 µM	125
5.12 µM	134
15.4 µM	136
46.1 µM	123

AUC of viability dose-response curve
Details	NOMO1 [1]	P12-Ichikawa	SEM cells [2]
HPLM + 10% dialyzed FBS	296	365	432
RPMI 5 mM glucose + 10% FBS	266	371	417
RPMI 5 mM glucose + 10% dialyzed FBS	296	377	384

CN(C)CCCN\C1=C\2C(=O)N(C)C(=O)\N=C2N(C)C3=C1C=CC=C3
AUC of viability dose-response curve
Details	NOMO1 [1]	P12-Ichikawa	SEM cells [2]
HPLM + 10% dialyzed FBS	446	442	396
RPMI 5 mM glucose + 10% FBS	446	421	394
RPMI 5 mM glucose + 10% dialyzed FBS	432	429	397

Reference: the supplement of paper PMC11451515
